Reference: ChEMBL document CHEMBL1795286, “A concise synthesis and antimicrobial activities of 3-polyamino-23,24-bisnorcholanes as steroid-polyamine conjugates” (2011)

Key:
[1] = system: Bacillus licheniformis; assay: Antimicrobial activity against Bacillus licheniformis EMR after 18 hrs by twofold agar dilution method; assay type: functional
[2] = system: Micrococcus luteus; assay: Antimicrobial activity against Micrococcus luteus ATCC 9341 after 18 hrs by twofold agar dilution method; assay type: functional; details: ATCC 9341, 18 h
[3] = system: Klebsiella aerogenes; assay: Antimicrobial activity against Klebsiella aerogenes harboring beta-lactamase SHV-1 1976E mutant after 18 hrs by twofold agar dilution method; assay type: functional
[4] = system: Enterobacter cloacae; assay: Antimicrobial activity against Enterobacter cloacae P99 after 18 hrs by twofold agar dilution method; assay type: functional; details: P99, 18 h
[5] = system: Bacillus subtilis; assay: Antimicrobial activity against Bacillus subtilis ATCC 6633 after 18 hrs by twofold agar dilution method; assay type: functional; details: ATCC 6633, 18 h
[6] = system: Moraxella catarrhalis; assay: Antimicrobial activity against Moraxella catarrhalis 25240 after 18 hrs by twofold agar dilution method; assay type: functional; details: Moraxella catarrhalis, 25240, 18 h
[7] = system: Moraxella catarrhalis; assay: Antimicrobial activity against Moraxella catarrhalis C2431 after 18 hrs by twofold agar dilution method; assay type: functional; details: C2431, 18 h
[8] = system: Klebsiella pneumoniae; assay: Antimicrobial activity against Klebsiella pneumoniae 2011E after 18 hrs by twofold agar dilution method; assay type: functional
[9] = system: Escherichia coli; assay: Antimicrobial activity against Escherichia coli ATCC 10536 after 18 hrs by twofold agar dilution method; assay type: functional; details: ATCC 10536, 18 h
[10] = system: Escherichia coli; assay: Antimicrobial activity against Escherichia coli 851E after 18 hrs by twofold agar dilution method; assay type: functional
[11] = system: Serratia marcescens; assay: Antimicrobial activity against Serratia marcescens 1826E after 18 hrs by twofold agar dilution method; assay type: functional
[12] = system: Staphylococcus epidermidis; assay: Antimicrobial activity against Staphylococcus epidermidis 887E after 18 hrs by twofold agar dilution method; assay type: functional
[13] = system: Staphylococcus aureus; assay: Antimicrobial activity against Staphylococcus aureus 77 after 18 hrs by twofold agar dilution method; assay type: functional; details: Staphylococcus aureus, 77, 18 h
[14] = system: Serratia marcescens; assay: Antimicrobial activity against Serratia marcescens ATCC 27117 after 18 hrs by twofold agar dilution method; assay type: functional; details: ATCC 27117, 18 h
[15] = system: Citrobacter freundii; assay: Antimicrobial activity against Citrobacter freundii 8090 after 18 hrs by twofold agar dilution method; assay type: functional; details: Citrobacter freundii, 8090, 18 h
[16] = system: Enterobacter cloacae; assay: Antimicrobial activity against Enterobacter cloacae ATCC 27508 after 18 hrs by twofold agar dilution method; assay type: functional; details: ATCC 27508, 18 h
[17] = system: Proteus vulgaris; assay: Antimicrobial activity against Proteus vulgaris 6059 after 18 hrs by twofold agar dilution method; assay type: functional; details: Proteus vulgaris, 6059, 18 h
[18] = system: Citrobacter koseri; assay: Antimicrobial activity against Citrobacter diversus 2046 after 18 hrs by twofold agar dilution method; assay type: functional; details: Citrobacter koseri, 2046, 18 h
[19] = system: Staphylococcus aureus; assay: Antimicrobial activity against Staphylococcus aureus 241 after 18 hrs by twofold agar dilution method; assay type: functional; details: Staphylococcus aureus, 241, 18 h
[20] = system: Pseudomonas aeruginosa; assay: Antimicrobial activity against Pseudomonas aeruginosa 6065Y after 18 hrs by twofold agar dilution method; assay type: functional
[21] = system: Staphylococcus aureus; assay: Antimicrobial activity against Staphylococcus aureus ATCC 6538P after 18 hrs by twofold agar dilution method; assay type: functional
[22] = system: Bacillus cereus; assay: Antimicrobial activity against Bacillus cereus ATCC 27348 after 18 hrs by twofold agar dilution method; assay type: functional; details: ATCC 27348, 18 h
[23] = system: Staphylococcus aureus; assay: Antimicrobial activity against Staphylococcus aureus ATCC 25923 after 18 hrs by twofold agar dilution method; assay type: functional; details: ATCC 25923, 18 h, read-out: MIC
[24] = system: Staphylococcus aureus; assay: Antimicrobial activity against Staphylococcus aureus giorgio after 18 hrs by twofold agar dilution method; assay type: functional
[25] = system: Escherichia coli; assay: Antimicrobial activity against Escherichia coli ATCC 25922 after 18 hrs by twofold agar dilution method; assay type: functional; details: ATCC 25922, 18 h
[26] = system: Enterococcus faecalis; assay: Antimicrobial activity against Enterococcus faecalis ATCC 29212 after 18 hrs by twofold agar dilution method; assay type: functional; details: ATCC 29212, 18 h
[27] = system: Salmonella typhimurium; assay: Antimicrobial activity against Salmonella typhimurium ATCC 13311 after 18 hrs by twofold agar dilution method; assay type: functional, Salmonella enterica subsp. enterica serovar Typhimurium; details: Salmonella enterica, ATCC 13311, 18 h
[28] = system: Acinetobacter calcoaceticus; assay: Antimicrobial activity against Acinetobacter calcoaceticus ATCC 15473 after 18 hrs by twofold agar dilution method; assay type: functional; details: ATCC 15473, 18 h
[29] = system: Salmonella typhimurium; assay: Antimicrobial activity against Salmonella Typhimurium ATCC 14028 after 18 hrs by two-fold agar dilution method; assay type: functional, Salmonella enterica subsp. enterica serovar Typhimurium; details: Salmonella enterica, ATCC 14028, 18 h
[30] = system: Escherichia coli; assay: Antimicrobial activity against Escherichia coli 3190Y after 18 hrs by twofold agar dilution method; assay type: functional
[31] = system: Morganella morganii; assay: Antimicrobial activity against Morganella morganii 1375E after 18 hrs by twofold agar dilution method; assay type: functional

Measured: MIC

C[C@H](CO)[C@H]1CC[C@H]2[C@@H]3CC[C@H]4C[C@H](NCCCNCCCCN)CC[C@]4(C)[C@H]3CC[C@]12C.Cl.Cl.Cl
16 µg/mL: [1]; read-out: MIC | [12]; read-out: MIC | [23]
> 32 µg/mL: [3] | [4] | [7] | [8] | [10] | [11] | [14] | [15] | [16] | [17] | [18] | [20] | [22] | [27] | [28] | [29] | [30] | [31]
< 32 µg/mL: [6]; read-out: MIC
4 µg/mL: [13]; read-out: MIC | [19]; read-out: MIC | [21]
8 µg/mL: [2]; read-out: MIC | [5] | [24]
32 µg/mL: [9]; read-out: MIC | [25]; read-out: MIC | [26]; read-out: MIC

C[C@H](CO)[C@H]1CC[C@H]2[C@@H]3CC[C@H]4C[C@@H](NCCCNCCCCN)CC[C@]4(C)[C@H]3CC[C@]12C.Cl.Cl.Cl
32 µg/mL: [6]; read-out: MIC | [7]; read-out: MIC | [13]; read-out: MIC
16 µg/mL: [2]; read-out: MIC | [12]; read-out: MIC | [23] | [24]
8 µg/mL: [5] | [19]; read-out: MIC | [21]
> 32 µg/mL: [1] | [3] | [4] | [8] | [10] | [11] | [14] | [15] | [16] | [17] | [18] | [20] | [22] | [26] | [27] | [28] | [29] | [30] | [31]
< 32 µg/mL: [9]; read-out: MIC | [25]; read-out: MIC

C[C@H](CO)[C@H]1CC[C@H]2[C@@H]3CC[C@@H]4C[C@H](NCCCNCCCCN)CC[C@]4(C)[C@H]3CC[C@]12C.Cl.Cl.Cl
< 32 µg/mL: [1]; read-out: MIC | [9]; read-out: MIC | [30]; read-out: MIC
> 32 µg/mL: [2] | [3] | [4] | [6] | [7] | [8] | [10] | [11] | [12] | [14] | [15] | [16] | [17] | [18] | [19] | [20] | [22] | [25] | [26] | [27] | [28] | [29] | [31]
32 µg/mL: [5] | [13]; read-out: MIC | [21] | [23] | [24]

C[C@H](CO)[C@H]1CC[C@H]2[C@@H]3CC[C@@H]4C[C@@H](NCCCNCCCCN)CC[C@]4(C)[C@H]3CC[C@]12C.Cl.Cl.Cl
> 32 µg/mL: [3] | [4] | [6] | [7] | [8] | [9] | [10] | [11] | [13] | [14] | [15] | [16] | [17] | [18] | [20] | [27] | [28] | [29] | [30] | [31]
16 µg/mL: [23] | [24]
8 µg/mL: [2]; read-out: MIC | [5] | [19]; read-out: MIC | [21]
< 32 µg/mL: [25]; read-out: MIC | [26]; read-out: MIC
32 µg/mL: [1]; read-out: MIC | [12]; read-out: MIC | [22]; read-out: MIC
